Reference: patent US4303659A, “Schistosomicidal compositions” (Pfizer Inc., priority 1979, dated 1981)
Read-outs that look alike come from different tables or passages of the source.

Test system: Puerto Rican strain of Schistosoma mansoni
Experiment: Effectiveness in treatment of schistosomiasis in infected mice (worm kill after oral dosing, perfusion and liver count 14 days post treatment)
Type: in vivo
Settings: 336 h, oral gavage
Experimental: Male mice are infected with 100 cercariae of Schistosoma mansoni and used 8-10 weeks post infection. The test compound(s) are suspended (at the desired concentration level) in a 10% solution of Cremophor EL in 0.2 M phosphate buffer at pH 7.0 (Cremophor EL is the registered trademark name of Badische Anilin und Soda-Fabrik of Ludwigshafen, West Germany for glycerol-polyethylene glycolricinoleate).
The resulting mixture is then administered to the mice by an oral gavage needle, using 0.3 ml. of the above suspension for a 30-gram animal. Fourteen days post treatment, the mice are killed by cervical dislocation and living worms are recovered from the blood vessels by perfusion. The liver is then removed and compressed between two glass plates, and the encapsulated (i.e., dead) worms are counted.
Effective doses required to kill 50% and 99% of male worms (i.e., ED50 and ED99 values, respectively) are calculated from the regression line of the dose response data.

SMILES | ED50 (compound alone, dose to kill 50% of male worms) [mg/kg] | ED99 (compound alone, dose to kill 99% of male worms) [mg/kg] | ED50 (oxamniquine in combination with 25 mg./kg. of praziquantel, 50% of male worms killed) [mg/kg] | ED99 (oxamniquine in combination with 25 mg./kg. of praziquantel, 99% of male worms killed) [mg/kg] | ED50 (compound alone, dose to kill 50% of male worms, read-out: ED50) [mg/kg] | ED50 (praziquantel in combination with 12.5 mg./kg. of oxamniquine, 50% of male worms killed, read-out: ED50) [mg/kg]
CC(C)NCC1CCc2cc(CO)c([N+](=O)[O-])cc2N1 (racemic) [Oxamniquine, dl-6-hydroxymethyl-2-isopropylaminomethyl-7-nitro-1,2,3,4-tetrahydroquinoline] | 39 | 89 | 8.6 | 16.6 | – | –
O=C(C1CCCCC1)N1CC(=O)N2CCc3ccccc3C2C1 (stereo not drawn) [Praziquantel, 2-cyclohexylcarbonyl-4-oxo-1,2,3,6,7,11b-hexahydro-4H-pyrazino [2,1a]isoquinoline] | – | – | – | – | 156 | 4.9
